Test results taken from ChEMBL document CHEMBL5214942, “Discovery of biphenyls bearing thiobarbiturate fragment by structure-based strategy as Mycobacterium tuberculosis protein tyrosine phosphatase B inhibitors” (Bioorg Med Chem, 2022).
pIC50, pKi: −log10 of the molar value. ≈ marks a conversion by molar mass, not a printed value. Calls of active or inactive are those of the source. No cut-off for these calls is given here.

Legend:
[1] = biological target: T1, Phosphotyrosine-protein phosphatase PTPB (Mycobacterium tuberculosis, UniProt P96830); experiment: Inhibition of recombinant Mycobacterium tuberculosis H37Rv MptpB using pNPP as substrate incubated for 10 mins and measured by spectrophotometric method
T1 sequence (P96830 whole entry): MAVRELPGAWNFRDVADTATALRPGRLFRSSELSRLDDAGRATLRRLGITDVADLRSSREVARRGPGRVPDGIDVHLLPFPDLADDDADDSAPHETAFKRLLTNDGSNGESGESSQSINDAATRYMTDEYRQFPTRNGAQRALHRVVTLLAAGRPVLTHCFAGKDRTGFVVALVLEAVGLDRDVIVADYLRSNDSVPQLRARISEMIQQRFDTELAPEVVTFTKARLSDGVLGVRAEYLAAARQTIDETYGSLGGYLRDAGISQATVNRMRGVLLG

[2] = biological target: T2, Phosphotyrosine-protein phosphatase PTPB (Mycobacterium tuberculosis) (UniProt P96830); experiment: Inhibition of recombinant Mycobacterium tuberculosis H37Rv MptpB using pNPP as substrate incubated for 10 mins at 50 uM and measured by spectrophotometric method relative to control
T2 sequence (whole entry): T1 sequence (P96830 whole entry)

[3] = biological target: T3, Tyrosine-protein phosphatase non-receptor type 1 (Homo sapiens) (UniProt P18031); experiment: Inhibition of recombinant human PTP1B using pNPP as substrate preincubated for 5 mins followed by substrate addition assessed as reduction in p-nitrophenol release at 50 uM relative to control
T3 sequence (whole entry): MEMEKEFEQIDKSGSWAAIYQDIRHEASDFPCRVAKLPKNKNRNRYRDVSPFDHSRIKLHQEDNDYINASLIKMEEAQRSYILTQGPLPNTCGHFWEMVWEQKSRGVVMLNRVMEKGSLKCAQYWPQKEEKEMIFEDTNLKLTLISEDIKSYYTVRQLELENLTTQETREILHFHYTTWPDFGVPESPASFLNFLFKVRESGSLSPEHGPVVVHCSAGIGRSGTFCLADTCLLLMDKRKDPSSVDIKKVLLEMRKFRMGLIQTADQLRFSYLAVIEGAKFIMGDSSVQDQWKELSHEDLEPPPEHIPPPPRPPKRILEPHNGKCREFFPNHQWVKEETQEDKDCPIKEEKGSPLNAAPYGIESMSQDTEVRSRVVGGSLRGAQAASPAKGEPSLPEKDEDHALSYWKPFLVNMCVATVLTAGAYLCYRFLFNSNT

[4] = Cytotoxicity against mouse J774.A1 cells after 48 hrs by MTT assay; format: toxicity, cell-based
[5] = biological target: T4, Low molecular weight protein-tyrosine phosphatase A (Mycobacterium tuberculosis) (UniProt P9WIA1); experiment: Inhibition of recombinant Mycobacterium tuberculosis H37Rv MptpA using pNPP as substrate at 50 uM incubated for 10 mins and measured by spectrophotometric method relative to control
T4 sequence (whole entry): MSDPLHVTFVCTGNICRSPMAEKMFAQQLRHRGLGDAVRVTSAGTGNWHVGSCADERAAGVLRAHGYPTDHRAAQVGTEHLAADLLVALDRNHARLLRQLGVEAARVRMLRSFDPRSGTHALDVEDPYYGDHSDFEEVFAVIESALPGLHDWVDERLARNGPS

[6] = tested on: Mycobacterium tuberculosis; experiment: Antimycobacterial activity against Mycobacterium tuberculosis H37Rv measured by microplate alamar blue assay; format: functional
[7] = Cytotoxicity against African green monkey Vero cells after 48 hrs by MTT assay; format: toxicity, cell-based; details: African green monkey (Chlorocebus sabaeus)
[8] = biological target: T5, Tyrosine-protein phosphatase non-receptor type 1 (Homo sapiens, UniProt P18031); experiment: Inhibition of recombinant human PTP1B using pNPP as substrate preincubated for 5 mins followed by substrate addition assessed as reduction in p-nitrophenol release
T5 sequence (P18031 whole entry): T3 sequence (whole entry)

[9] = biological target: T6, Low molecular weight protein-tyrosine phosphatase A (Mycobacterium tuberculosis, UniProt P9WIA1); experiment: Inhibition of recombinant Mycobacterium tuberculosis H37Rv MptpA using pNPP as substrate incubated for 10 mins and measured by spectrophotometric method
T6 sequence (P9WIA1 whole entry): T4 sequence (whole entry)

[10] = tested on: Mycobacterium tuberculosis; experiment: Antimycobacterial activity against Mycobacterium tuberculosis infected in mouse J774.A1 cells assessed as reduction in intracellular bacterial burden at 1 to 10 ug/ml measured by colony counting method; format: functional, organism-based; details: dose 1-10 µg/ml
[11] = biological target: T1, Phosphotyrosine-protein phosphatase PTPB; experiment: Non-competitive inhibition of recombinant Mycobacterium tuberculosis H37Rv MptpB using pNPP as substrate
[12] = tested on: Mycobacterium tuberculosis; experiment: Antimycobacterial activity against Mycobacterium tuberculosis infected in mouse J774.A1 cells assessed as reduction in intracellular bacterial burden at 5 ug/ml measured by colony counting method; format: functional; set-up: scale not given: the % may be the effect or the level left; details: dose 5 µg/ml

| SMILES | pIC50 [1] | inhibition [2] | IC50 at 48 h [4] | MIC [6] | IC50 at 48 h [7] | other results |
| --- | --- | --- | --- | --- | --- | --- |
| C/C=C(\C)[C@@H]1C(C)=C[C@@H]2CC(C)=CC[C@H]2[C@@H]1/C=C/C=C(\C)[C@@H](O)[C@@H](C)C(=O)O | 5.98 | – | – | – | – | – |
| COc1ccc(-c2ccc(OCc3ccc(Cl)cc3)c(C=C3C(=O)NC(=S)NC3=O)c2)cc1 | – | 42.7% | – | – | – | – |
| O=C1NC(=S)NC(=O)C1=Cc1ccc(OCc2ccc(Cl)cc2)cc1-c1cc(Cl)c(O)c(Cl)c1 | 5.44 | 95% | 57 µg/mL (≈ 107 µM) | > 32 µg/mL | > 64 µg/mL | inhibition [3]: 78.6%; inhibition [5]: 49%; pIC50 [8]: 4.47 |
| Cc1onc(C(=O)O)c1-c1cccc(-c2cc(Cl)c(O)c(Cl)c2)c1 | 5.53 | – | – | – | – | – |
| CN1C(=O)C(=Cc2cc(-c3cc(Cl)c(O)c(Cl)c3)ccc2OCc2ccc(Cl)cc2)C(=O)N(C)C1=O | – | 51.9% | – | – | – | – |
| CN1C(=O)C(=Cc2cc(-c3cc(Cl)c(O)c(Cl)c3)ccc2OCc2ccc(Cl)cc2)C(=O)N(C)C1=S | 4.85 | 87% | – | – | – | – |
| O=C1NC(=S)NC(=O)C1=Cc1cc(OCc2ccc(Cl)cc2)cc(-c2cc(Cl)c(O)c(Cl)c2)c1 | 5.33 | 91.6% | 39.9 µg/mL (≈ 74.7 µM) | > 32 µg/mL | > 64 µg/mL | inhibition [3]: 93.7%; inhibition [5]: 39.7%; pIC50 [8]: 5.11 |
| O=C1NC(=S)NC(=O)C1=Cc1ccc(-c2cc(Cl)c(O)c(Cl)c2)c(OCc2ccc(Cl)cc2)c1 | – | 75.2% | – | – | – | – |
| O=C1NC(=S)NC(=O)C1=Cc1ccc(OCc2ccc(Cl)cc2)c(-c2cc(Cl)c(O)c(Cl)c2)c1 | 5.23 | 84.4% | 13.9 µg/mL (≈ 26 µM) | > 32 µg/mL | > 64 µg/mL | inhibition [3]: 98.2%; inhibition [5]: 69.6%; pIC50 [8]: 5.46 |
| O=C1NC(=S)NC(=O)C1=Cc1cc(-c2cc3ccccc3s2)ccc1OCc1ccc(Cl)cc1 | – | 57.5% | – | – | – | – |
| Cc1cc(-c2ccc(OCc3ccc(Cl)cc3)c(C=C3C(=O)NC(=S)NC3=O)c2)cc(C)c1O | – | 59.2% | – | – | – | – |
| O=C1NC(=S)NC(=O)C1=Cc1cc(-c2ccc(C(F)(F)F)cc2)ccc1OCc1ccc(Cl)cc1 | 5.42 | 86.4% | 14.8 µg/mL (≈ 28.6 µM) | > 32 µg/mL | > 64 µg/mL | inhibition [3]: 81.4%; pIC50 [9]: 4.70; inhibition [5]: 74.2%; pIC50 [8]: 5.41 |
| CO[C@H]1/C=C/O[C@@]2(C)Oc3c(C)c(O)c4c(O)c(c(/C=N/N5CCN(C)CC5)c(O)c4c3C2=O)NC(=O)/C(C)=C\C=C\[C@H](C)[C@H](O)[C@@H](C)[C@@H](O)[C@@H](C)[C@H](OC(C)=O)[C@@H]1C [RIFAMPIN] | – | – | > 64 µg/mL | 0.037 µg/mL (≈ 0.045 µM) | > 64 µg/mL | – |
| O=C1NC(=S)NC(=O)C1=Cc1cc(-c2cc(Cl)c(O)c(Cl)c2)ccc1OCc1ccc(Cl)cc1 | 5.93 | 95.9% | 13 µg/mL (≈ 24.4 µM) | > 32 µg/mL | > 64 µg/mL | inhibition [3]: 98.3%; Activity [10]: Active; pIC50 [9]: 5.05; pKi [11]: 6.00; inhibition [5]: 86.4%; Activity [12]: 90%; pIC50 [8]: 5.29 |
| O=C1NC(=S)NC(=O)C1=Cc1cc(Br)ccc1OCc1ccc(Cl)cc1 | 4.65 | 63% | – | – | – | – |
| O=C1NC(=S)NC(=O)C1=Cc1cc(-c2ccccc2)ccc1OCc1ccc(Cl)cc1 | – | 43.9% | – | – | – | – |
| O=C(C(c1ccccc1)S(=O)(=O)O)N1CCCC2CCCCC21 (configuration not stated) | 7.74 | – | – | – | – | – |
| COC(=O)c1ccc(-c2ccc(OCc3ccc(Cl)cc3)c(C=C3C(=O)NC(=S)NC3=O)c2)cc1 | – | 63.3% | – | – | – | – |
| O=C1NC(=S)NC(=O)C1=Cc1cc(-c2ccc(O)c(Cl)c2)ccc1OCc1ccc(Cl)cc1 | – | 72.7% | – | – | – | – |
| O=C1NC(=O)C(=Cc2cc(-c3cc(Cl)c(O)c(Cl)c3)ccc2OCc2ccc(Cl)cc2)C(=O)N1 | – | 16.2% | – | – | – | – |
| NNC(=O)c1ccncc1 [ISONIAZID] | – | – | > 64 µg/mL | 0.072 µg/mL (≈ 0.525 µM) | > 64 µg/mL | – |
| O=C1NC(=S)NC(=O)C1=Cc1cc(-c2ccc(O)c(F)c2)ccc1OCc1ccc(Cl)cc1 | – | 65% | – | – | – | – |
| O=C1NC(=S)NC(=O)C1=Cc1cc(-c2ccc(OC(F)(F)F)cc2)ccc1OCc1ccc(Cl)cc1 | – | 65% | – | – | – | – |
| O=C1NC(=S)NC(=O)C1=Cc1cc(-c2ccc(Cl)cc2)ccc1OCc1ccc(Cl)cc1 | – | 77.5% | – | – | – | – |
| O=C1NC(=S)NC(=O)C1=Cc1cc(-c2ccc3occc(=O)c3c2)ccc1OCc1ccc(Cl)cc1 | – | 73% | – | – | – | – |
| O=C1NC(=S)NC(=O)C1=Cc1cc(-c2cc(Cl)c(O)c(Cl)c2)ccc1OCc1ccccc1 | 5.42 | 95.4% | 3.44 µg/mL (≈ 6.89 µM) | 25.1 µg/mL (≈ 50.2 µM) | > 64 µg/mL | inhibition [3]: 87.7%; inhibition [5]: 14.6%; pIC50 [8]: 4.56 |
| O=C1NC(=S)NC(=O)C1=Cc1c(OCc2ccc(Cl)cc2)cccc1-c1cc(Cl)c(O)c(Cl)c1 | – | 45.5% | – | – | – | – |
| O=C1NC(=S)NC(=O)C1=Cc1cc(-c2cc(Cl)c(O)c(Cl)c2)ccc1OCc1cc(F)cc(F)c1 | 5.27 | 89.1% | 15.4 µg/mL (≈ 28.8 µM) | > 32 µg/mL | > 64 µg/mL | inhibition [3]: 92.3%; pIC50 [8]: 5.20 |
